Data from patent US9249145B2, “Heterocyclic derivatives of pyrazol-4-yl-pyrrolo[2,3-d]pyrimidines as janus kinase inhibitors” (Incyte Holdings Corporation, priority 2009, dated 2016).

How the values were obtained:
[1] = target: T1, human JAK1 (a.a. 837-1142) (Homo sapiens, UniProt P23458); experiment: In vitro JAK kinase assay (HTRF, phosphorylation of biotinylated peptide), JAK1; format: biochemical; conditions: 1 mM ATP; Examples 92-162; read-out: JAK1 IC50 (nM) @ 1 mM ATP
T1 construct: The catalytic domains of human JAK1 (a.a. 837-1142); His tag (N); made in house; host or cells: insect cells (baculovirus)
T1 sequence (P23458 849-1154): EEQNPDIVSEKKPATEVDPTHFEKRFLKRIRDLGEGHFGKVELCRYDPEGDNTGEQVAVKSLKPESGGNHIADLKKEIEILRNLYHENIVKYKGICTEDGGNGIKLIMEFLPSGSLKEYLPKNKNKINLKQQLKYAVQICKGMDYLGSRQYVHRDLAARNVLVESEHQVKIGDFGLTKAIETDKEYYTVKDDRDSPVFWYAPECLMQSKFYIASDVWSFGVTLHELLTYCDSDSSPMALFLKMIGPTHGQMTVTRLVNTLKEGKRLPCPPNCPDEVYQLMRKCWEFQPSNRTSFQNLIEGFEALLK
In short: (§1)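 IC50 from HTRF detection (Eu-Py20 antibody, SA-APC, 40 min) after EDTA quench. Reactions ran 1 h at room temperature with 500 nM biotinylated peptide in Tris pH 7.8 buffer with NaCl, DTT, BSA; ATP 90 μM for JAK1, 30 μM for JAK2 (Km), or 1 mM. Enzymes: His-tagged catalytic domains from insect cells.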

Jak2 (a.a. 828-1132) = target: T2, Jak2 (a.a. 828-1132) (Homo sapiens, UniProt O60674); experiment: In vitro JAK kinase assay (HTRF, phosphorylation of biotinylated peptide), JAK2; format: biochemical; conditions: 1 mM ATP; Examples 92-162; read-out: JAK2 IC50 (nM) @ 1 mM ATP
T2 construct: Jak2 (a.a. 828-1132); His tag (N); made in house; host or cells: insect cells (baculovirus)
T2 sequence (O60674 828-1132): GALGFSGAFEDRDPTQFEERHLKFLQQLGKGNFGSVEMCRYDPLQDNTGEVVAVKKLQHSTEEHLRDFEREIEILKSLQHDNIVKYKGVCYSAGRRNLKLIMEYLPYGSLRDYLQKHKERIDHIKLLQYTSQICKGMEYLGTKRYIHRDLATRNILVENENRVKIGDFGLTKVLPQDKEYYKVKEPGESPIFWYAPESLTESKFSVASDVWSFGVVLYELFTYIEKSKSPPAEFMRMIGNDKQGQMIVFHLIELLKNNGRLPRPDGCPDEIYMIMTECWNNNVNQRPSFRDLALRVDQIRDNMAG
In short: as §1

| Compound | IC50 [1] | IC50 (Jak2 (a.a. 828-1132)) |
| --- | --- | --- |
| CCC(CN1CCN(C(=O)c2ccc(F)cc2)CC1)n1cc(-c2ncnc3[nH]ccc23)cn1 (centres unmarked) [Example 116, (4-(2-(4-(7H-pyrrolo[2,3-d]pyrimidin-4-yl)-1H-pyrazol-1-yl)butyl)piperazin-1-yl)(4-fluorophenyl)methanone] | 20 to 50 nM | > 100 nM |
| CCC(CN1CCN(C(=O)c2ccccc2O)CC1)n1cc(-c2ncnc3[nH]ccc23)cn1 (centres unmarked) [Example 117, 2-[(4-{2-[4-(7H-pyrrolo[2,3-d]pyrimidin-4-yl)-1H-pyrazol-1-yl]butyl}piperazin-1-yl)carbonyl]phenol] | 20 to 50 nM | 50 to 100 nM |
| CCC(CN1CCN(C(=O)c2cc(F)ccc2F)CC1)n1cc(-c2ncnc3[nH]ccc23)cn1 (centres unmarked) [Example 119, (4-(2-(4-(7H-pyrrolo[2,3-d]pyrimidin-4-yl)-1H-pyrazol-1-yl)butyl)piperazin-1-yl)(2,5-difluorophenyl)methanone] | 20 to 50 nM | 50 to 100 nM |
| CCC(CN1CCN(C(=O)c2cccc(F)c2F)CC1)n1cc(-c2ncnc3[nH]ccc23)cn1 (centres unmarked) [Example 120, (4-(2-(4-(7H-pyrrolo[2,3-d]pyrimidin-4-yl)-1H-pyrazol-1-yl)butyl)piperazin-1-yl)(2,3-difluorophenyl)methanone] | 20 to 50 nM | 50 to 100 nM |
| CCC(CN1CCN(C(=O)c2cc(F)cc(F)c2)CC1)n1cc(-c2ncnc3[nH]ccc23)cn1 (centres unmarked) [Example 121, (4-(2-(4-(7H-pyrrolo[2,3-d]pyrimidin-4-yl)-1H-pyrazol-1-yl)butyl)piperazin-1-yl)(3,5-difluorophenyl)methanone] | 20 to 50 nM | > 100 nM |
| CCC(CN1CCN(C(=O)c2ccc(F)cc2OC)CC1)n1cc(-c2ncnc3[nH]ccc23)cn1 (centres unmarked) [Example 125, (4-(2-(4-(7H-pyrrolo[2,3-d]pyrimidin-4-yl)-1H-pyrazol-1-yl)butyl)piperazin-1-yl)(4-fluoro-2-methoxyphenyl)methanone] | 20 to 50 nM | > 100 nM |
| CCC(CN1CCN(C(=O)c2cccs2)CC1)n1cc(-c2ncnc3[nH]ccc23)cn1 (centres unmarked) [Example 126, (4-(2-(4-(7H-pyrrolo[2,3-d]pyrimidin-4-yl)-1H-pyrazol-1-yl)butyl)piperazin-1-yl)(thiophen-2-yl)methanone] | 20 to 50 nM | > 100 nM |
| CCC(CN1CCN(S(=O)(=O)c2ccc(C#N)cc2)CC1)n1cc(-c2ncnc3[nH]ccc23)cn1 (centres unmarked) [Example 129, 4-(4-(2-(4-(7H-pyrrolo[2,3-d]pyrimidin-4-yl)-1H-pyrazol-1-yl)butyl)piperazin-1-ylsulfonyl)benzonitrile] | 20 to 50 nM | 50 to 100 nM |
| CCC(CN1CCN(S(=O)(=O)c2cn(C)nc2C(F)(F)F)CC1)n1cc(-c2ncnc3[nH]ccc23)cn1 (centres unmarked) [Example 133, 4-(1-(1-(4-(1-methyl-3-(trifluoromethyl)-1H-pyrazol-4-ylsulfonyl)piperazin-1-yl)butan-2-yl)-1H-pyrazol-4-yl)-7H-pyrrolo[2,3-d]pyrimidine] | 20 to 50 nM | > 100 nM |
| CCC(CN1CCN(S(=O)(=O)c2cccc(C#N)c2)CC1)n1cc(-c2ncnc3[nH]ccc23)cn1 (centres unmarked) [Example 139, 3-(4-(2-(4-(7H-pyrrolo[2,3-d]pyrimidin-4-yl)-1H-pyrazol-1-yl)butyl)piperazin-1-ylsulfonyl)benzonitrile] | 20 to 50 nM | > 100 nM |
| CCC(CN1CCN(S(=O)(=O)c2cc(F)ccc2F)CC1)n1cc(-c2ncnc3[nH]ccc23)cn1 (centres unmarked) [Example 141, 4-(1-(1-(4-(2,5-difluorophenylsulfonyl)piperazin-1-yl)butan-2-yl)-1H-pyrazol-4-yl)-7H-pyrrolo[2,3-d]pyrimidine] | < 20 nM | 50 to 100 nM |
| CCC(CN1CCN(S(=O)(=O)c2cc(F)cc(F)c2)CC1)n1cc(-c2ncnc3[nH]ccc23)cn1 (centres unmarked) [Example 142, 4-(1-(1-(4-(3,5-difluorophenylsulfonyl)piperazin-1-yl)butan-2-yl)-1H-pyrazol-4-yl)-7H-pyrrolo[2,3-d]pyrimidine] | < 20 nM | 50 to 100 nM |
| CCC(CN1CCN(S(=O)(=O)c2ccc(F)cc2C)CC1)n1cc(-c2ncnc3[nH]ccc23)cn1 (centres unmarked) [Example 143, 4-(1-(1-(4-(4-floro-2-methylphenylsulfonyl)piperazin-1-yl)butan-2-yl)-1H-pyrazol-4-yl)-7H-pyrrolo[2,3-d]pyrimidine] | < 20 nM | > 100 nM |

The remaining lines, values ahead:

| IC50 [1] | IC50 (Jak2 (a.a. 828-1132)) | Compound |
| --- | --- | --- |
| < 20 nM | 20 to 50 nM | CCC(CN1CCN(S(=O)(=O)c2ccn(C)n2)CC1)n1cc(-c2ncnc3[nH]ccc23)cn1 (centres unmarked) [Example 115, 4-{1-[1-({4-[(1-methyl-1H-pyrazol-3-yl)sulfonyl]piperazin-1-yl}methyl)propyl]-1H-pyrazol-4-yl}-7H-pyrrolo[2,3-d]pyrimidine] |
| < 20 nM | 20 to 50 nM | CCC(CN1CCN(C(=O)c2ccc(F)cc2F)CC1)n1cc(-c2ncnc3[nH]ccc23)cn1 (centres unmarked) [Example 118, (4-(2-(4-(7H-pyrrolo[2,3-d]pyrimidin-4-yl)-1H-pyrazol-1-yl)butyl)piperazin-1-yl)(2,4-difluorophenyl)methanone] |
| < 20 nM | 50 to 100 nM | CCC(CN1CCN(C(=O)c2ccc(O)cc2Cl)CC1)n1cc(-c2ncnc3[nH]ccc23)cn1 (centres unmarked) [Example 122, (4-(2-(4-(7H-pyrrolo[2,3-d]pyrimidin-4-yl)-1H-pyrazol-1-yl)butyl)piperazin-1-yl)(2-chloro-4-hydroxyphenyl)methanone] |
| < 20 nM | < 20 nM | CCC(CN1CCN(C(=O)c2ccc(O)cc2F)CC1)n1cc(-c2ncnc3[nH]ccc23)cn1 (centres unmarked) [Example 123, (4-(2-(4-(7H-pyrrolo[2,3-d]pyrimidin-4-yl)-1H-pyrazol-1-yl)butyl)piperazin-1-yl)(2-fluoro-4-hydroxyphenyl)methanone] |
| < 20 nM | 20 to 50 nM | CCC(CN1CCN(C(=O)c2ccc(Cl)cc2F)CC1)n1cc(-c2ncnc3[nH]ccc23)cn1 (centres unmarked) [Example 124, (4-(2-(4-(7H-pyrrolo[2,3-d]pyrimidin-4-yl)-1H-pyrazol-1-yl)butyl)piperazin-1-yl)(4-chloro-2-fluorophenyl)methanone] |
| < 20 nM | 20 to 50 nM | CCC(CN1CCN(S(=O)(=O)c2ccccc2)CC1)n1cc(-c2ncnc3[nH]ccc23)cn1 (centres unmarked) [Example 127, 4-(1-(1-(4-(phenylsulfonyl)piperazin-1-yl)butan-2-yl)-1H-pyrazol-4-yl)-7H-pyrrolo[2,3-d]pyrimidine] |
| < 20 nM | 50 to 100 nM | CCC(CN1CCN(S(=O)(=O)c2ccccc2C#N)CC1)n1cc(-c2ncnc3[nH]ccc23)cn1 (centres unmarked) [Example 128, 2-(4-(2-(4-(7H-pyrrolo[2,3-d]pyrimidin-4-yl)-1H-pyrazol-1-yl)butyl)piperazin-1-ylsulfonyl)benzonitrile] |
| < 20 nM | 50 to 100 nM | CCC(CN1CCN(S(=O)(=O)c2ccccc2C(F)(F)F)CC1)n1cc(-c2ncnc3[nH]ccc23)cn1 (centres unmarked) [Example 130, 4-(1-(1-(4-(2-(trifluoromethyl)phenylsulfonyl)piperazin-1-yl)butan-2-yl)-1H-pyrazol-4-yl)-7H-pyrrolo[2,3-d]pyrimidine] |
| < 20 nM | 20 to 50 nM | CCC(CN1CCN(S(=O)(=O)c2cccc(C)n2)CC1)n1cc(-c2ncnc3[nH]ccc23)cn1 (centres unmarked) [Example 131, 4-(1-(1-(4-(6-methylpyridin-2-ylsulfonyl)piperazin-1-yl)butan-2-yl)-1H-pyrazol-4-yl)-7H-pyrrolo[2,3-d]pyrimidine] |
| < 20 nM | 20 to 50 nM | CCC(CN1CCN(S(=O)(=O)c2ccccc2Cl)CC1)n1cc(-c2ncnc3[nH]ccc23)cn1 (centres unmarked) [Example 132, 4-(1-(1-(4-(2-chlorophenylsulfonyl)piperazin-1-yl)butan-2-yl)-1H-pyrazol-4-yl)-7H-pyrrolo[2,3-d]pyrimidine] |
| < 20 nM | 20 to 50 nM | CCC(CN1CCN(S(=O)(=O)c2cccs2)CC1)n1cc(-c2ncnc3[nH]ccc23)cn1 (centres unmarked) [Example 134, 4-(1-(1-(4-(thiophen-2-ylsulfonyl)piperazin-1-yl)butan-2-yl)-1H-pyrazol-4-yl)-7H-pyrrolo[2,3-d]pyrimidine] |
| < 20 nM | 20 to 50 nM | CCC(CN1CCN(S(=O)(=O)c2sccc2Cl)CC1)n1cc(-c2ncnc3[nH]ccc23)cn1 (centres unmarked) [Example 135, 4-(1-(1-(4-(3-chlorothiophen-2-ylsulfonyl)piperazin-1-yl)butan-2-yl)-1H-pyrazol-4-yl)-7H-pyrrolo[2,3-d]pyrimidine] |
| < 20 nM | 20 to 50 nM | CCC(CN1CCN(S(=O)(=O)c2cccc(F)c2)CC1)n1cc(-c2ncnc3[nH]ccc23)cn1 (centres unmarked) [Example 136, 4-(1-(1-(4-(3-fluorophenylsulfonyl)piperazin-1-yl)butan-2-yl)-1H-pyrazol-4-yl)-7H-pyrrolo[2,3-d]pyrimidine] |
| < 20 nM | 50 to 100 nM | CCC(CN1CCN(S(=O)(=O)c2ccc(F)cc2)CC1)n1cc(-c2ncnc3[nH]ccc23)cn1 (centres unmarked) [Example 137, 4-(1-(1-(4-(4-fluorophenylsulfonyl)piperazin-1-yl)butan-2-yl)-1H-pyrazol-4-yl)-7H-pyrrolo[2,3-d]pyrimidine] |
| < 20 nM | 50 to 100 nM | CCC(CN1CCN(S(=O)(=O)c2ccc(F)cc2F)CC1)n1cc(-c2ncnc3[nH]ccc23)cn1 (centres unmarked) [Example 140, 4-(1-(1-(4-(2,4-difluorophenylsulfonyl)piperazin-1-yl)butan-2-yl)-1H-pyrazol-4-yl)-7H-pyrrolo[2,3-d]pyrimidine] |
